# Measured values taken from article PMC8694143 (Microbiology Spectrum, 2021).
# No end group written: not given here.
# Tests used:
# M. luteus ATCC 4698 = assay: MIC determination in broth; type: cell-based, Micrococcus luteus
# [1] = tested on: S. pseudintermedius canine isolate MRSP16; assay: MIC determination in broth; type: cell-based, Staphylococcus pseudintermedius; settings: MH broth
# Method: (§1) The MICs were measured for bioactive peptides identified from the initial screen. Cation-adjusted Mueller-Hinton (MH) broth was used as the growth medium for MIC determination experiments. Bacterial cultures were diluted to an OD of 5 × 10^−4 (∼10^5 CFU/mL) in 200 μL MH broth mixed with peptides in a 2-fold dilution series arrayed in 96-well plates. Plates were incubated without shaking at 30 or 37°C depending on the organism.
# [2] = tested on: S. pseudintermedius canine isolate MRSP24; assay: MIC determination in broth; type: cell-based, Staphylococcus pseudintermedius; settings: MH broth
# Method: as §1
# [3] = tested on: S. pseudintermedius canine isolate MSSP42; assay: MIC determination in broth; type: cell-based, Staphylococcus pseudintermedius; settings: MH broth
# Method: as §1
# [4] = tested on: S. pseudintermedius human isolate SPC001 (MSSP); assay: MIC determination in broth; type: cell-based, Staphylococcus pseudintermedius; settings: MH broth
# Method: as §1
# [5] = tested on: S. pseudintermedius human isolate SPC002 (MSSP); assay: MIC determination in broth; type: cell-based, Staphylococcus pseudintermedius; settings: MH broth
# Method: as §1
# [6] = tested on: S. pseudintermedius human isolate SPC020 (MSSR); assay: MIC determination in broth; type: cell-based, Staphylococcus pseudintermedius; settings: MH broth
# Method: as §1
# S. epidermidis = assay: MIC determination in broth; type: cell-based, Staphylococcus epidermidis; settings: isolate from the healthy quarter of a dairy cow; MH broth
# Method: as §1
# S. equorum = assay: MIC determination in broth; type: cell-based, Staphylococcus equorum; settings: isolate from the healthy quarter of a dairy cow; MH broth
# Method: as §1
# panel of 7 MRSA strains = assay: Bactericidal activity time course, MRSA panel; type: cell-based, Staphylococcus aureus
# Method: Time-dependent inhibition of pathogens was measured using standing bacterial cultures treated with 2× MIC. Overnight cultures were diluted to 10^4 or 10^7 CFU/mL in 2 mL of MH broth supplemented with the appropriate peptide concentration or sterile water as a control. Standing cultures were then incubated at 37°C and 100 μL aliquots were removed at specified time intervals. For the panel of 7 MRSA strains, treatment intervals of 30 min, 4 h, 8 h, and 24 h were used. For MRSA ATCC 33592, ATCC 1683, and S. pseudintermedius SPC002, shorter intervals included 5, 30, 60, 120, 240, and 360 min. The 100-μL aliquots were plated using serial dilutions as necessary on LB agar, and CFU were counted as a measure of bacterial viability after 24 h. To normalize cell viability data, surviving cells in CFU/mL were compared to the initial bacterial inoculum of each strain and then expressed as a percentage of that concentration. All experiments were performed in triplicate with values reported as the mean with standard deviations. Statistical differences in the observed viability of bacteria treated with STIP3-29 were analyzed using a paired two-tailed Student’s t test comparing the pretreatment (0 h) viability to those observed at posttreatment time points using Stata v17.0 software.
# [7] = Circular dichroism spectroscopy; type: physicochemical; settings: CD, 50% TFE (vol/vol), peptide 0.2 mg/mL, room temperature
# Method: Peptides were dissolved in ultrapure water or 50% TFE (vol/vol) at a concentration of 0.2 mg/mL for spectroscopy. Spectra of samples in a 1 mm pathlength quartz cuvette were recorded from 180 to 260 nm at 0.5 nm steps using an Applied Photophysics Chirascan Plus CD spectrophotometer operating at room temperature.
# 3D EpiDerm skin tissues = assay: Tissue cytotoxicity, alamarBlue; type: cell-based, human; settings: 250 μg/mL (40-fold the MIC), 24 h, data not shown
# Method: Cytotoxicity was measured using the 3D EpiDerm skin tissues and HeLa (ATCC CCL-2) cells using a fluorescent reporter of cell viability, alamarBlue (ThermoFisher Scientific). 3D EpiDerm skin tissues (MatTek EPI-200-AFAB) were transferred to a 12-well plate containing 600 μL of AFAB-assay medium supplemented with 10% vol/vol alamarBlue. […] HeLa cells were seeded in a 96-well plate at 2 × 10^4 cells/per well and incubated overnight at 37°C in a humidified 5% CO2 environment to prepare wells at ∼50% confluence for treatments after spent Dulbecco’s modified Eagle’s medium (DMEM) was removed and cells were washed with PBS. Assays were then performed using phenol red-free DMEM supplement with 9% vol/vol alamarBlue and peptide concentrations varying from 3.13 to 200 μg/mL. After a 24 h incubation period, alamarBlue fluorescence emission was measured at 590 nm upon excitation at 560 nm using Varioskan Lux plate reader (Thermo Scientific). Fluorescence intensities of treated cultures were normalized to measurement made for untreated control samples. Experimental data sets were fit to nonlinear dose-response curves to determine IC50 values using Origin 2019.
substance,measurement,setting,value
TVGGLVKWILKTVKKFA-NH2 [STIP3-29],"MIC, M. luteus","M. luteus ATCC 4698; cation-adjusted MH broth, ~10^5 CFU/mL, 30°C, 48 h",1.56 µg/mL
same,"MIC, M. luteus, molar",M. luteus ATCC 4698; conversion of 1.56 μg/mL,0.85 µM
same,"MIC, S. pseudintermedius MRSP16",[1],3.13 µg/mL
same,"MIC, S. pseudintermedius MRSP24",[2],3.13 µg/mL
same,"MIC, S. pseudintermedius MSSP42",[3],3.13 µg/mL
same,"MIC, S. pseudintermedius SPC001 (MSSP)",[4],3.13 µg/mL
same,"MIC, S. pseudintermedius SPC002 (MSSP)",[5],3.13 µg/mL
same,"MIC, S. pseudintermedius SPC020 (MSSR)",[6],3.13 µg/mL
same,"MIC, S. epidermidis",S. epidermidis,3.13 µg/mL
same,"MIC, S. equorum",S. equorum,3.13 µg/mL
same,Recovery of viable MRSA cells,"panel of 7 MRSA strains; 12.5 μg/mL (2× MIC), MH broth, 37°C, 4 h, all 7 MRSA strains, triplicate",less than 1%
same,Mode of antibacterial action from viability time courses,panel of 7 MRSA strains; MRSA viability during two time course experiments,bactericidal
same,α-Helical content (%),[7],61%
same,"Tissue-level cytotoxicity, redox-sensitive dye",3D EpiDerm skin tissues,unable to differentiate STIP3-29-treated and untreated samples
